Measured values: patent US20230373929A1, “FUSED RING DIIMIDE DERIVATIVE, PREPARATION METHOD AND USE THEREOF” (XIANGBEI WELMAN PHARMACEUTICAL CO., LTD., priority 2020, published 2023)
Where two headings read alike, the source gives them in different places.

How the values were obtained:
[1] = system: human colon cancer cells HT-29; assay: anti-proliferative activity against tumor cells, resazurin (Alamar blue) assay, HT-29; assay type: cell-based; conditions: read-out: IC50 Grades of Inhibitory Effects of Compounds on Tumor Cells, HT-29
Experimental: (§1) Objective: To test the anti-proliferative activity of the compound of the present disclosure against various tumor cells.
(§2) Test cells: human colon cancer cells (HT-29, COLO 205), human lung cancer cells (NCI-H460, A549) and human leukemia cells (HL-60, U-937).
(§3) Test method: each tumor cell was tested separately. Cells were incubated in medium at […] for 24 hours before use. The cells growing in an exponential growth phase were harvested and treated with trypsin to prepare a cell suspension, the cell suspension was centrifuged, then the cell pellet was resuspended in a small amount of fresh medium as a cell stock. The cell stock was diluted to required cell concentrations.
(§4) The test was carried out on 96-well plates; blank control groups, cell control groups and compound treatment groups were set up. In the blank control groups, only 10% PBS was added to each well, while in the cell control groups and the compound treatment groups, 100 μL of cells at the above concentration were added to each well, and then each well was filled with 200 μL of 10% PBS. The plates were placed in an incubator overnight. In the compound treatment groups, 100 μL of each test compound at different dilution concentrations was added to each well, the dilution concentrations of the compounds are as shown in Table 2.
(§5) After the addition of the drug to each well was completed, the plates were cultured in an incubator for 96 hours, 22 μL of resazurin sodium solution (Alarm blue, SIGMA R7017) was added to each well. The plates were returned to the incubator for another 4 hours of incubation and then shaken for 10 seconds after being taken out. The fluorescence value of each well were recorded at 530/590 nm.
(§6) The above operations were repeated three times.
(§7) The IC50 value of each test compound was calculated by Prism7 software. IC50 was divided into different grades according to values, that is, SS: <1 μM; S: 1-5 μM; A: 5-10 μM; B: 11-20 μM; C: 21-50 μM; D: 51-100 μM; E: >100 μM.

[2] = system: human lung cancer cells NCI-H460; assay: anti-proliferative activity against tumor cells, resazurin assay, NCI-H460; assay type: cell-based; conditions: read-out: IC50 Grades of Inhibitory Effects of Compounds on Tumor Cells, NCI-H460
Experimental: as §1, §2, §3, §4, §5, §6, §7

[3] = system: human colon cancer cells COLO 205; assay: anti-proliferative activity against tumor cells, resazurin assay, COLO 205; assay type: cell-based; conditions: read-out: IC50 Grades of Inhibitory Effects of Compounds on Tumor Cells, COLO205
Experimental: as §1, §2, §3, §4, §5, §6, §7

[4] = system: human leukemia cells U-937; assay: anti-proliferative activity against tumor cells, resazurin assay, U-937; assay type: cell-based; conditions: read-out: IC50 Grades of Inhibitory Effects of Compounds on Tumor Cells, U-937
Experimental: as §1, §2, §3, §4, §5, §6, §7

[5] = system: human leukemia cells HL-60; assay: anti-proliferative activity against tumor cells, resazurin assay, HL-60; assay type: cell-based; conditions: read-out: IC50 Grades of Inhibitory Effects of Compounds on Tumor Cells, HL-60
Experimental: as §1, §2, §3, §4, §5, §6, §7

[6] = system: human lung cancer cells A549; assay: anti-proliferative activity against tumor cells, resazurin assay, A549; assay type: cell-based; conditions: read-out: IC50 Grades of Inhibitory Effects of Compounds on Tumor Cells, A549
Experimental: as §1, §2, §3, §4, §5, §6, §7

[7] = system: tumor cells; assay: anti-proliferative activity, overall comparison over all tumor cells; assay type: cell-based, human; conditions: all tested tumor cells, under the test condition of the present disclosure
Experimental: as §1, §2, §3
(§8) The test was carried out on 96-well plates; blank control groups, cell control groups and compound treatment groups were set up. In the blank control groups, only 10% PBS was added to each well, while in the cell control groups and the compound treatment groups, 100 μL of cells at the above concentration were added to each well, and then each well was filled with 200 μL of 10% PBS. […]
(§9) After the addition of the drug to each well was completed, the plates were cultured in an incubator for 96 hours, 22 μL of resazurin sodium solution (Alarm blue, SIGMA R7017) was added to each well. […] The fluorescence value of each well were recorded at 530/590 nm.
(§10) The IC50 value of each test compound was calculated by Prism7 software. […]

[8] = system: colon cancer cells; assay: anti-proliferative activity, colon cancer cells; assay type: cell-based, human; conditions: versus similar compounds (Compound 1d, Compound 1)
Experimental: as §1, §2, §3, §8, §9, §10

[9] = Homo sapiens, HT-29, 96 hours culture, resazurin fluorescence 530/590 nm
[10] = Homo sapiens, NCI-H460, 96 hours culture, resazurin fluorescence 530/590 nm
[11] = Homo sapiens, COLO 205, COLO205, 96 hours culture, resazurin fluorescence 530/590 nm
[12] = Homo sapiens, U-937, 96 hours culture, resazurin fluorescence 530/590 nm
[13] = Homo sapiens, HL-60, 96 hours culture, resazurin fluorescence 530/590 nm
[14] = Homo sapiens, A549, 96 hours culture, resazurin fluorescence 530/590 nm

Row | SMILES | IC50 [1, 9] | IC50 [2, 10] | IC50 [3, 11] | IC50 [4, 12] | IC50 [5, 13] | IC50 [6, 14] | IC50 ([1]; Homo sapiens, HT-29, 96 h) | IC50 ([2]; Homo sapiens, NCI-H460, 96 h) | IC50 ([3]; Homo sapiens, COLO 205, 96 h) | IC50 ([4]; Homo sapiens, U-937, 96 h) | IC50 ([5]; Homo sapiens, HL-60, 96 h) | IC50 ([6]; Homo sapiens, A549, 96 h) | also measured
1 | CN(C)CCN1C(=O)c2cccc3cc(N)cc(c23)C1=O [Amonafide, reference compound] | 11 to 20 µM | 11 to 20 µM | 5 to 10 µM | 11 to 20 µM | 5 to 10 µM | 1 to 5 µM | – | – | – | – | – | – | –
2 | O=NN(CCCl)C(=O)NCCN1C(=O)c2cccc3cc([N+](=O)[O-])cc(c23)C1=O [Compound 1, reference compound] | – | – | – | – | – | – | 21 to 50 µM | 11 to 20 µM | 21 to 50 µM | 21 to 50 µM | 11 to 20 µM | 5 to 10 µM | overall anti-tumor activity, comparison in words [7]: inferior to that of Amonafide
3 | O=NN(CCCl)C(=O)NCCCCN1C(=O)c2cccc3cccc(c23)C1=O [Compound 1d, reference compound] | – | – | – | – | – | – | 21 to 50 µM | 51 to 100 µM | 21 to 50 µM | 11 to 20 µM | 21 to 50 µM | 21 to 50 µM | overall anti-tumor activity, comparison in words [7]: inferior to that of Amonafide
4 | O=C(NCCNCCCCN1C(=O)c2cccc3cccc(c23)C1=O)N(CCl)CCl [Compound I-01] | – | – | – | – | – | – | 1 to 5 µM | 5 to 10 µM | 1 to 5 µM | 1 to 5 µM | 5 to 10 µM | 1 to 5 µM | –
5 | O=C(OCCOCCCCN1C(=O)c2cccc3cccc(c23)C1=O)N(CCl)CCl [Compound I-02] | – | – | – | – | – | – | – | – | – | – | – | – | IC50 ([1]; HT-29, 96 hours culture, resazurin fluorescence 530/590 nm): 5 to 10 µM; IC50 ([2]; NCI-H460, 96 hours culture, resazurin fluorescence 530/590 nm): 5 to 10 µM; IC50 ([3]; COLO205, 96 hours culture, resazurin fluorescence 530/590 nm): 5 to 10 µM; IC50 ([4]; U-937, 96 hours culture, resazurin fluorescence 530/590 nm): 5 to 10 µM; IC50 ([5]; HL-60, 96 hours culture, resazurin fluorescence 530/590 nm): 5 to 10 µM; IC50 ([6]; A549, 96 hours culture, resazurin fluorescence 530/590 nm): 5 to 10 µM
6 | O=NN(CCCl)C(=O)NCNCCN1C(=O)c2cccc3cc([N+](=O)[O-])cc(c23)C1=O [Compound I-03] | – | – | – | – | – | – | 1 to 5 µM | 5 to 10 µM | < 1 µM | 5 to 10 µM | 1 to 5 µM | 1 to 5 µM | activity relative to that of similar compounds [8]: 50 times
7 | O=NN(CCCl)C(=O)NCCNCCCCN1C(=O)c2cccc3cccc(c23)C1=O [Compound I-04] | – | – | – | – | – | – | < 1 µM | 5 to 10 µM | 1 to 5 µM | 1 to 5 µM | 1 to 5 µM | 5 to 10 µM | activity relative to that of similar compounds [8]: 50 times
8 | CON(C)C(=O)N(C)CCCCNCCN1C(=O)c2cccc3c(N(C)C)ccc(c23)C1=O [Compound I-05] | 1 to 5 µM | 5 to 10 µM | 1 to 5 µM | 5 to 10 µM | 5 to 10 µM | 5 to 10 µM | – | – | – | – | – | – | –
9 | COc1ccc2cc3c(cc2c1)C(=O)N(COCCN(OC)C(=O)N(C)C)C3=O [Compound I-08] | 11 to 20 µM | 5 to 10 µM | 5 to 10 µM | 5 to 10 µM | 5 to 10 µM | 5 to 10 µM | – | – | – | – | – | – | –
10 | CN(C)C(=O)NCCN(CCCN1C(=O)c2cccc3cc4ccccc4c(c23)C1=O)[N+](=O)[O-] [Compound I-10] | 5 to 10 µM | 1 to 5 µM | 1 to 5 µM | 5 to 10 µM | 1 to 5 µM | 5 to 10 µM | – | – | – | – | – | – | –
11 | CCSC(=O)OCCCCOCN1C(=O)c2cccc3c(C)c4ccccc4c(c23)C1=O [Compound I-12] | 5 to 10 µM | 5 to 10 µM | 5 to 10 µM | 11 to 20 µM | 11 to 20 µM | 5 to 10 µM | – | – | – | – | – | – | –
12 | CCN(C)C(=O)NCCN(CCN1C(=O)c2cccc3c2c(cc2ccccc23)C1=O)OC [Compound I-15] | 1 to 5 µM | 1 to 5 µM | 5 to 10 µM | 1 to 5 µM | 5 to 10 µM | 5 to 10 µM | – | – | – | – | – | – | –
13 | CN(N=O)C(=O)NCCCCCCNCN1C(=O)c2cccc3c2c(cc2ccc(C#N)cc23)C1=O [Compound I-17] | 1 to 5 µM | 1 to 5 µM | 5 to 10 µM | 1 to 5 µM | 5 to 10 µM | 1 to 5 µM | – | – | – | – | – | – | –
14 | CC(C)(C)OC(=O)N1CCN(CCCN2C(=O)c3ccc4c5cccc6c(Br)ccc(c7ccc(c3c47)C2=O)c65)CC1 [Compound I-18] | 5 to 10 µM | 5 to 10 µM | 11 to 20 µM | 11 to 20 µM | 5 to 10 µM | 5 to 10 µM | – | – | – | – | – | – | –
15 | CONC(=O)NCCN(CCCCN1C(=O)c2cccc3c2c(cc2ccoc23)C1=O)OC [Compound I-20] | 5 to 10 µM | 5 to 10 µM | 5 to 10 µM | 5 to 10 µM | 5 to 10 µM | 1 to 5 µM | – | – | – | – | – | – | –
